Experiment [1] concerns the target T1, Histone deacetylase 1 (Homo sapiens, UniProt Q13547). In words: Inhibition of human recombinant HDAC1 expressed in baculovirus infected insect High5 cells using Ac-Lys-Tyr-Lys(epsilon-acetyl)-AMC as substrate at 20 ug/ml by fluorescence assay.
The next experiment relates to HCT-116. The experiment can be described thus: Cytotoxicity against human HCT116 cells after 24 hrs by MTT assay. The experiment is classed as functional, cell-based. Particulars: HCT-116, 24 h. (Formazan colour is commonly taken as a measure of viable cells.)
Experiment [2] concerns the target T2, Histone deacetylase 3 (Homo sapiens, UniProt O15379). The experiment can be described thus: Inhibition of human recombinant HDAC3 expressed in baculovirus infected insect High5 cells using Ac-Lys-Tyr-Lys(epsilon-acetyl)-AMC as substrate at 20 ug/ml by fluorescence assay.
In experiment [3] the target is T3, Protein deacetylase HDAC6 (Homo sapiens) (UniProt Q9UBN7).
T3 sequence (whole entry): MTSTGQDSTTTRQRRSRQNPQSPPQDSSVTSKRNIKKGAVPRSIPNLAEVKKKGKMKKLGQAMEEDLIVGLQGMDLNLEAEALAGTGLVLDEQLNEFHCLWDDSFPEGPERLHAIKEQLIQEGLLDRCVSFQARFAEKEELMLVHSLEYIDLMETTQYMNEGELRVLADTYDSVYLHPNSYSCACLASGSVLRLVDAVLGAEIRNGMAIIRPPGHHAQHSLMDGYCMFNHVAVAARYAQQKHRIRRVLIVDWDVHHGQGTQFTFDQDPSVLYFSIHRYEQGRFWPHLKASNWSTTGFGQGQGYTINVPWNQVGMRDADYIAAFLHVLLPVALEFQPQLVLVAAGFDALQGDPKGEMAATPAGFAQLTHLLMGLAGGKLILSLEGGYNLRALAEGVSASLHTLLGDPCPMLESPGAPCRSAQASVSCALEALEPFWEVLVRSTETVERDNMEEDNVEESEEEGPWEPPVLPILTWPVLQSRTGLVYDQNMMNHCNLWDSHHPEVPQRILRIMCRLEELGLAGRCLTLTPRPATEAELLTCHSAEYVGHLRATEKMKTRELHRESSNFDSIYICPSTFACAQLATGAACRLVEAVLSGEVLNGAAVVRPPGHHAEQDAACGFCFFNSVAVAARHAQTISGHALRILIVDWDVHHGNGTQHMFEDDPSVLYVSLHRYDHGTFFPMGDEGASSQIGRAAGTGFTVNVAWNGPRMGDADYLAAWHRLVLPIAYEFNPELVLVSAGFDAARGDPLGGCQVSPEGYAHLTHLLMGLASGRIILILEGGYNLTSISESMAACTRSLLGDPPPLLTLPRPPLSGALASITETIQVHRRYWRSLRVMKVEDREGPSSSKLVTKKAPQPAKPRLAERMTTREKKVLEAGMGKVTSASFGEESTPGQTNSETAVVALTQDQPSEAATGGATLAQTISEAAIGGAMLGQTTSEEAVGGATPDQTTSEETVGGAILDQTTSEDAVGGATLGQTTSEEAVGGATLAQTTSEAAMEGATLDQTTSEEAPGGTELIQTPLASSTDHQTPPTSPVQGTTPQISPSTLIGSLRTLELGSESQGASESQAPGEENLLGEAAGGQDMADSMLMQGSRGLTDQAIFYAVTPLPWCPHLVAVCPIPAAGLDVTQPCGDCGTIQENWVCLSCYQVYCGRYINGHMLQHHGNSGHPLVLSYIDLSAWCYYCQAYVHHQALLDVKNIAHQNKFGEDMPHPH
In words: Inhibition of human recombinant HDAC6 expressed in baculovirus infected insect High5 cells using Boc-Lys(epsilon-acetyl)-AMC as substrate at 20 ug/ml by fluorescence assay.

In experiment [4] the target is T4, Protein deacetylase HDAC6 (Homo sapiens, UniProt Q9UBN7).
T4 sequence (Q9UBN7 whole entry): T3 sequence (whole entry)
The experiment can be described thus: Inhibition of human recombinant HDAC6 expressed in baculovirus infected insect High5 cells using Boc-Lys(epsilon-acetyl)-AMC as substrate by fluorescence assay.

Experiment [5] has as its target T1, Histone deacetylase 1. The experiment can be described thus: Inhibition of human recombinant HDAC1 expressed in baculovirus infected insect High5 cells using Ac-Lys-Tyr-Lys(epsilon-acetyl)-AMC as substrate by fluorescence assay.
The target in experiment [6] is T2, Histone deacetylase 3. The experiment can be described thus: Inhibition of human recombinant HDAC3 expressed in baculovirus infected insect High5 cells using Ac-Lys-Tyr-Lys(epsilon-acetyl)-AMC as substrate by fluorescence assay.

The source made the active and inactive calls. The calls are words filed in the database; no cut-off is given here.

T2 sequence (O15379 whole entry): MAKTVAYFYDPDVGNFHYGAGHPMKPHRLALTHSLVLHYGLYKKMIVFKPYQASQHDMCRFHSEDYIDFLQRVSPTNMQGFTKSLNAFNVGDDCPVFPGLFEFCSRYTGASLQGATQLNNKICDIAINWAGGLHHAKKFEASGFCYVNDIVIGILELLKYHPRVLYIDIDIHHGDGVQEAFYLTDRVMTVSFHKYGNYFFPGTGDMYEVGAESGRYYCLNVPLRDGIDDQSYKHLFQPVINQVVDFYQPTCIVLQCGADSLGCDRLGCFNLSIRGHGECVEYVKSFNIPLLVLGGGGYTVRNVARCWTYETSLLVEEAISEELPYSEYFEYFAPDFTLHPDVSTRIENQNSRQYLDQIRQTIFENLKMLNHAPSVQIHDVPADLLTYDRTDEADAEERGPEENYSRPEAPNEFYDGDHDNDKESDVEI
T1 sequence (Q13547 whole entry): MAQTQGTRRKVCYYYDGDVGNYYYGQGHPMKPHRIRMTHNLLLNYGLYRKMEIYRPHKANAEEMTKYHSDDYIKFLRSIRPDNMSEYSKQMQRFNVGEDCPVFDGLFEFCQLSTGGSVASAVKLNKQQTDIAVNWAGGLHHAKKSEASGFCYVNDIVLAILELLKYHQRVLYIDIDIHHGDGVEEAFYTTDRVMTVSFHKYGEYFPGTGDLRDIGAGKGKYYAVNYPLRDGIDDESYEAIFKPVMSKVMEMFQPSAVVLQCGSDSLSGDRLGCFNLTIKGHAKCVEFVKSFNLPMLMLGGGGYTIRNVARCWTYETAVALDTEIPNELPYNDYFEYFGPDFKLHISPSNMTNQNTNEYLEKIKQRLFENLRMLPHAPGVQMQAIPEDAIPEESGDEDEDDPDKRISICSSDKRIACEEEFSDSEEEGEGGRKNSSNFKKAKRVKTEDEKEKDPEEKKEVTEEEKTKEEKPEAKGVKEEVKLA

The inhibition is the drop in the measured response relative to a control, in per cent. Broadly, the IC50 is the concentration at which inhibition is half-maximal. `O=C(O)/C=C/C=C/CC/C=C/c1ccc2c(c1)OCO2`: the inhibition (on Histone deacetylase 1 [1]; at Histone deacetylase 3 [2]; in experiment [3]) was less than 50% in each case. Further, the half-maximal inhibitory concentration (IC50) in the experiment with HCT-116 is more than 20 µM.
Take `O=C(O)/C=C/C=C/c1ccc2c(c1)OCO2` [PIPERIC ACID]: the inhibition entry at Histone deacetylase 1 [1] and at Histone deacetylase 3 [2] was “inactive” in each case. The IC50 in the experiment on HCT-116 was more than 20 µM. The inhibition in experiment [3] is less than 50%.
As to `O=C(/C=C/C=C/c1ccc2c(c1)OCO2)NO`, the inhibition entry at Histone deacetylase 1 [1] and on Histone deacetylase 3 [2] was “inactive” throughout. Moreover, the IC50 with HCT-116 is 9.1 µM; in experiment [4] it was 30.4 µM.
With `CC(C)CNC(=O)/C=C/C=C/CC/C=C/c1ccc2c(c1)OCO2` [RETROFRACTAMIDE A], the inhibition (at Histone deacetylase 1 [1]; on Histone deacetylase 3 [2]; in experiment [3]) was less than 50% in each case. The molecule also gave an IC50 in the experiment on HCT-116 of more than 20 µM.
As to `CC(C)CNC(=O)/C=C/C=C/c1ccc2c(c1)OCO2` [PIPERLONGUMININE], the inhibition entry at Histone deacetylase 1 [1] and on Histone deacetylase 3 [2] was “inactive” each time. The molecule also gave a half-maximal inhibitory concentration (IC50) in the experiment on HCT-116 of more than 20 µM. In addition, the inhibition in experiment [3] is less than 50%.
Take `O=C(O)/C=C/C=C/CCCCc1ccc2c(c1)OCO2`: the inhibition (on Histone deacetylase 1 [1]; at Histone deacetylase 3 [2]; in experiment [3]) was less than 50% throughout. Moreover, the IC50 with HCT-116 is more than 20 µM.
On to `O=C(/C=C/C=C/CCCCc1ccc2c(c1)OCO2)NO`, for which the 50% inhibitory concentration (IC50) worked out at 1.61 µM at Histone deacetylase 1 [5], 3.5 µM in the experiment with HCT-116, 1.52 µM at Histone deacetylase 3 [6] and 2.25 µM in experiment [4].
The corresponding values for `O=C(/C=C/C=C/CC/C=C/c1ccc2c(c1)OCO2)NO` are 0.73 µM, 4.4 µM, 0.76 µM and 0.73 µM.

These data come from ChEMBL document CHEMBL1806373, “Synthesis and biological evaluation of piperamide analogues as HDAC inhibitors” (Bioorg Med Chem Lett, 2011).
